Each compound was assayed on J774.1 (assay: Inhibition of LPS-induced NO production in mouse J774.1cells after 24 hrs). Conditions: J774.1, 24 h.
Format: functional, cell-based
For `CNC(=N)NCCC[C@H](N)C(=O)O` [TILARGININE], the IC50 was 35.7 µM. `C=C[C@@]1(C)CC(=O)[C@H]2[C@](O)(C1=O)[C@H](OC(C)=O)C[C@H]1C(C)(C)[C@H](OC(=O)c3ccccc3)[C@H](O)[C@H](OC(=O)c3ccccc3)[C@@]12C` [ORTHOSIPHONONE D] gave an IC50 of 35 µM. `C=C[C@@]1(C)CC(=O)[C@H]2[C@](O)(C1=O)[C@H](OC(C)=O)C[C@H]1C(C)(C)[C@H](O)[C@H](OC(=O)c3ccccc3)[C@H](O)[C@@]12C` [ORTHOSIPHONONE C] gave an IC50 of 81.8 µM. Compound `C=C[C@H]1[C@@H](OC(=O)c2ccccc2)[C@H]2[C@](O)(C(=O)[C@@]1(C)O)[C@H](OC(C)=O)C[C@H]1C(C)(C)[C@H](OC(=O)c3ccccc3)[C@H](O)[C@H](OC(C)=O)[C@@]12C` [STAMINOL C] has an IC50 of 61.1 µM. Work on `C=C[C@H]1[C@@H](OC(=O)c2ccccc2)[C@@H]2[C@@]3(C)C=C(OC(C)=O)C(=O)C(C)(C)[C@@H]3C[C@@H](OC(C)=O)[C@@]2(O)C(=O)[C@@]1(C)O` [STAMINOL D] yielded an IC50 of 92 µM. `C=C[C@@]1(C)C[C@@H](O)[C@@H]2[C@@]3(C)C=C(OC(C)=O)C(=O)C(C)(C)[C@@H]3C[C@@H](OC(C)=O)[C@@]2(O)[C@H]1OC(C)=O` gave an IC50 of 119 µM.

— ChEMBL document CHEMBL1151178, “Staminane- and isopimarane-type diterpenes from Orthosiphon stamineus of Taiwan and their nitric oxide inhibitory activity” (J Nat Prod, 2004)
